According to ChEMBL document CHEMBL1130803, “Anti-HIV pronucleotides: decomposition pathways and correlation with biological activities” (Bioorg Med Chem Lett, 1998):

What was measured:
[1] = Half-life at initial concentration of 5*10e-5 M in CEM cell extract; assay type: ADME, CCRF-CEM; conditions: human
[2] = tested on: CCRF-CEM; assay: Compound was evaluated for anti-HIV activity against thymidine kinase deficient CEM cell line infected with HIV-1; assay type: functional, cell-based; conditions: Homo sapiens
[3] = tested on: CCRF-CEM; assay: Compound was evaluated for cytotoxicity against thymidine kinase deficient CEM cell line infected with HIV-1; assay type: functional; conditions: Homo sapiens

SMILES | half-life [1] [h] | EC50 [2] [µM] | CC50 [3] [µM]
COC(=O)CCNP(=O)(OCC1OC(n2cc(C)c(=O)[nH]c2=O)CC1N=[N+]=[N-])Oc1ccccc1 (centres undefined) | > 8 | > 100 | > 100
COC(=O)CNP(=O)(OCC1OC(n2cc(C)c(=O)[nH]c2=O)CC1N=[N+]=[N-])Oc1ccccc1 (centres undefined) | 21 | 63 | > 100
Cc1cn([C@H]2C[C@H](N=[N+]=[N-])[C@@H](CO)O2)c(=O)[nH]c1=O [ZIDOVUDINE] |  | > 100 | > 100
COC(=O)[C@H](C)NP(=O)(OC[C@H]1O[C@@H](n2cc(C)c(=O)[nH]c2=O)C[C@@H]1N=[N+]=[N-])Oc1ccccc1 (some centres undefined) | 2.5 | 4.1 | 97
CC(=O)OCCNP(=O)(OCC1OC(n2cc(C)c(=O)[nH]c2=O)CC1N=[N+]=[N-])Oc1ccccc1 (centres undefined) | 1.5 | > 10 | > 10
